Experimental data taken from PubChem BioAssay AID2060883 (Molecular Pharmacology Branch, DTP, NCI, 2025).

Test system: 843782-103-R-J1-PDC complex spheroid viability
Assay: Anticancer human tumor 843782-103-R-J1-PDC patient-derived lung adenocarcinoma cell line growth inhibition [RAS]
Conditions: for IC50: curve of first compound; for viability, T/C: stronger effect = lower value
How it was run: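 Tumour cells grown as complex spheroids with HUVEC endothelial cells and mesenchymal stem cells, treated with RAS pathway inhibitor combinations. Each agent spans half-log steps from near clinical Cmax, or 10 microM where Cmax is unknown.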
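Note: viability read after seven days of compound exposure.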

## CC(=O)OC12COC1CC(O)C1(C)C(=O)C(O)C3=C(C)C(OC(=O)C(O)C(NC(=O)OC(C)(C)C)c4ccccc4)CC(O)(C(OC(=O)c4ccccc4)C21)C3(C)C (centres undefined) + CCn1c(-c2cccnc2C(C)OC)c2c3cc(ccc31)N1CCOC(CC(NC(=O)C(C(C)C)N(C)C(=O)C3(F)CCN(C(=O)C#CC(C)(C)N(C)C)CC3)C(=O)N3CCCC(N3)C(=O)OCC(C)(C)C2)C1
Second compound 0.000949 µM
  IC50: < 0.0316 µM
Second compound 0.003 µM
  IC50: < 0.0316 µM
Second compound 0.00949 µM
  IC50: < 0.0316 µM
Second compound 0.03 µM
  IC50: < 0.0316 µM
Second compound 0.0949 µM
  IC50: < 0.0316 µM
Second compound 0.3 µM
  IC50: < 0.0316 µM
Second compound 0.000949 µM, first compound 0.0316 µM
  viability, T/C: 4.08%
Second compound 0.000949 µM, first compound 0.1 µM
  viability, T/C: 5.48%
Second compound 0.000949 µM, first compound 0.316 µM
  viability, T/C: 6.81%
Second compound 0.000949 µM, first compound 1 µM
  viability, T/C: 5.51%
Second compound 0.000949 µM, first compound 3.16 µM
  viability, T/C: 7.48%
Second compound 0.000949 µM, first compound 10 µM
  viability, T/C: 11.2%
Second compound 0.003 µM, first compound 0.0316 µM
  viability, T/C: 5.53%
Second compound 0.003 µM, first compound 0.1 µM
  viability, T/C: 7.6%
Second compound 0.003 µM, first compound 0.316 µM
  viability, T/C: 7.77%
Second compound 0.003 µM, first compound 1 µM
  viability, T/C: 6.28%
Second compound 0.003 µM, first compound 3.16 µM
  viability, T/C: 6.75%
Second compound 0.003 µM, first compound 10 µM
  viability, T/C: 9.92%
Second compound 0.00949 µM, first compound 0.0316 µM
  viability, T/C: 5.3%
Second compound 0.00949 µM, first compound 0.1 µM
  viability, T/C: 8.65%
Second compound 0.00949 µM, first compound 0.316 µM
  viability, T/C: 9.68%
Second compound 0.00949 µM, first compound 1 µM
  viability, T/C: 7.03%
Second compound 0.00949 µM, first compound 3.16 µM
  viability, T/C: 10%
Second compound 0.00949 µM, first compound 10 µM
  viability, T/C: 9.14%
Second compound 0.03 µM, first compound 0.0316 µM
  viability, T/C: 5.25%
Second compound 0.03 µM, first compound 0.1 µM
  viability, T/C: 7.67%
Second compound 0.03 µM, first compound 0.316 µM
  viability, T/C: 6.65%
Second compound 0.03 µM, first compound 1 µM
  viability, T/C: 8.38%
Second compound 0.03 µM, first compound 3.16 µM
  viability, T/C: 9.51%
Second compound 0.03 µM, first compound 10 µM
  viability, T/C: 12.3%
Second compound 0.0949 µM, first compound 0.0316 µM
  viability, T/C: 8.61%
Second compound 0.0949 µM, first compound 0.1 µM
  viability, T/C: 7.03%
Second compound 0.0949 µM, first compound 0.316 µM
  viability, T/C: 8.34%
Second compound 0.0949 µM, first compound 1 µM
  viability, T/C: 7.78%
Second compound 0.0949 µM, first compound 3.16 µM
  viability, T/C: 10.6%
Second compound 0.0949 µM, first compound 10 µM
  viability, T/C: 9.37%
Second compound 0.3 µM, first compound 0.0316 µM
  viability, T/C: 3.84%
Second compound 0.3 µM, first compound 0.1 µM
  viability, T/C: 5.17%
Second compound 0.3 µM, first compound 0.316 µM
  viability, T/C: 6.69%
Second compound 0.3 µM, first compound 1 µM
  viability, T/C: 9.62%
Second compound 0.3 µM, first compound 3.16 µM
  viability, T/C: 8.58%
Second compound 0.3 µM, first compound 10 µM
  viability, T/C: 9.58%

## CCN1CCN(Cc2ccc(Nc3ncc(F)c(-c4cc(F)c5nc(C)n(C(C)C)c5c4)n3)nc2)CC1 + C=CC(=O)N1CCN(c2nc(OCC3CCCN3C)nc3c(F)c(-c4nc(N)cc(C)c4C(F)(F)F)c(Cl)cc23)C(C)C1
Second compound 0.00316 µM
  IC50: 0.988 µM
Second compound 0.01 µM
  IC50: 0.471 µM
Second compound 0.0316 µM
  IC50: 0.697 µM
Second compound 0.1 µM
  IC50: 0.764 µM
Second compound 0.316 µM
  IC50: > 1 µM
Second compound 1 µM
  IC50: 0.836 µM
Second compound 0.00316 µM, first compound 0.00316 µM
  viability, T/C: 86.1%
Second compound 0.00316 µM, first compound 0.01 µM
  viability, T/C: 93.4%
Second compound 0.00316 µM, first compound 0.0316 µM
  viability, T/C: 88.5%
Second compound 0.00316 µM, first compound 0.1 µM
  viability, T/C: 86.3%
Second compound 0.00316 µM, first compound 0.316 µM
  viability, T/C: 68.1%
Second compound 0.00316 µM, first compound 1 µM
  viability, T/C: 49.8%
Second compound 0.01 µM, first compound 0.00316 µM
  viability, T/C: 88.4%
Second compound 0.01 µM, first compound 0.01 µM
  viability, T/C: 86.6%
Second compound 0.01 µM, first compound 0.0316 µM
  viability, T/C: 86.3%
Second compound 0.01 µM, first compound 0.1 µM
  viability, T/C: 74.9%
Second compound 0.01 µM, first compound 0.316 µM
  viability, T/C: 53.8%
Second compound 0.01 µM, first compound 1 µM
  viability, T/C: 43%
Second compound 0.0316 µM, first compound 0.00316 µM
  viability, T/C: 83.1%
Second compound 0.0316 µM, first compound 0.01 µM
  viability, T/C: 83.7%
Second compound 0.0316 µM, first compound 0.0316 µM
  viability, T/C: 81.4%
Second compound 0.0316 µM, first compound 0.1 µM
  viability, T/C: 79.8%
Second compound 0.0316 µM, first compound 0.316 µM
  viability, T/C: 65.5%
Second compound 0.0316 µM, first compound 1 µM
  viability, T/C: 42.2%
Second compound 0.1 µM, first compound 0.00316 µM
  viability, T/C: 89.5%
Second compound 0.1 µM, first compound 0.01 µM
  viability, T/C: 81%
Second compound 0.1 µM, first compound 0.0316 µM
  viability, T/C: 81.5%
Second compound 0.1 µM, first compound 0.1 µM
  viability, T/C: 80%
Second compound 0.1 µM, first compound 0.316 µM
  viability, T/C: 60.7%
Second compound 0.1 µM, first compound 1 µM
  viability, T/C: 46.7%
Second compound 0.316 µM, first compound 0.00316 µM
  viability, T/C: 88.9%
Second compound 0.316 µM, first compound 0.01 µM
  viability, T/C: 86%
Second compound 0.316 µM, first compound 0.0316 µM
  viability, T/C: 83.7%
Second compound 0.316 µM, first compound 0.1 µM
  viability, T/C: 71.9%
Second compound 0.316 µM, first compound 0.316 µM
  viability, T/C: 62.5%
Second compound 0.316 µM, first compound 1 µM
  viability, T/C: 57.7%
Second compound 1 µM, first compound 0.00316 µM
  viability, T/C: 91.1%
Second compound 1 µM, first compound 0.01 µM
  viability, T/C: 83.2%
Second compound 1 µM, first compound 0.0316 µM
  viability, T/C: 86.7%
Second compound 1 µM, first compound 0.1 µM
  viability, T/C: 78.3%
Second compound 1 µM, first compound 0.316 µM
  viability, T/C: 63.5%
Second compound 1 µM, first compound 1 µM
  viability, T/C: 47.5%
